Data reported in PubChem BioAssay AID328 (DTP/NCI, 2004).
Values joined by “and” are separate entries in the source; they are usually repeats but may differ in a detail not shown here. Equal values may be shown once. Inconclusive results and toxic doses are left out.

Test system: BDF1 mice, P388 leukemia ip, median survival T/C
Test: NCI In Vivo Anticancer Drug Screen. Data for tumor model P388 Leukemia (intraperitoneal) in B6D2F1 (BDF1) mice
Conditions: endpoint: median survival time, higher = longer survival
Summary of the method: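 T/C = treated-group survival ÷ vehicle-control survival; tumour transplanted into mice before dosing.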

[1] = dose: 0.25 mg/kg/injection, schedule: Q01DX009 (ip), vehicle: saline
[2] = dose: 1.0 mg/kg/injection, schedule: Q01DX009 (ip), vehicle: saline
[3] = dose: 50.0 mg/kg/injection, schedule: Q01DX009 (ip), vehicle: Klucel (hydroxypropylcellulose) (HPC)
[4] = dose: 100.0 mg/kg/injection, schedule: Q01DX009 (ip), vehicle: Klucel (hydroxypropylcellulose) (HPC)
[5] = dose: 12.5 mg/kg/injection, schedule: Q01DX009 (ip), vehicle: saline with Tween-80
[6] = dose: 25.0 mg/kg/injection, schedule: Q01DX009 (ip), vehicle: saline with Tween-80
[7] = dose: 50.0 mg/kg/injection, schedule: Q01DX009 (ip), vehicle: saline with Tween-80
[8] = dose: 100.0 mg/kg/injection, schedule: Q01DX009 (ip), vehicle: saline with Tween-80
[9] = dose: 200.0 mg/kg/injection, schedule: Q01DX009 (ip), vehicle: saline with Tween-80
[10] = dose: 400.0 mg/kg/injection, schedule: Q01DX009 (ip), vehicle: saline with Tween-80
[11] = dose: 50.0 mg/kg/injection, schedule: Q04DX003 (ip), vehicle: saline with Tween-80
[12] = dose: 100.0 mg/kg/injection, schedule: Q04DX003 (ip), vehicle: saline with Tween-80
[13] = dose: 200.0 mg/kg/injection, schedule: Q04DX003 (ip), vehicle: saline with Tween-80
[14] = dose: 100.0 mg/kg/injection, schedule: Q04DX003 (ip), vehicle: Klucel (hydroxypropylcellulose) (HPC)
[15] = dose: 200.0 mg/kg/injection, schedule: Q04DX003 (ip), vehicle: Klucel (hydroxypropylcellulose) (HPC)
[16] = dose: 50.0 mg/kg/injection, schedule: Q01DX009 (ip), vehicle: saline
[17] = dose: 100.0 mg/kg/injection, schedule: Q01DX009 (ip), vehicle: saline
[18] = dose: 200.0 mg/kg/injection, schedule: Q01DX009 (ip), vehicle: saline

Structure (SMILES): CCCCCC[C@@H](O)[C@@H]1C2=C(C[C@H]([C@H](O)[C@@H]3CC=CC(=O)O3)CC3=C(C(=O)OC3=O)[C@@H]1O)C(=O)OC2=O
- T/C (dose: 0.12 mg/kg/injection, schedule: Q01DX009 (ip), vehicle: saline): 107 % of control
- T/C [1]: 109 % of control
- T/C (dose: 0.5 mg/kg/injection, schedule: Q01DX009 (ip), vehicle: saline): 107 % of control
- T/C [2]: 119 % of control

Structure (SMILES): CC1(c2cccc3ccccc23)NC(=O)c2ccccc2N1 (stereo unspecified)
- T/C [3]: 105 % of control
- T/C [4]: 120 % of control

Structure (SMILES): CC(C)CC(B1OCCO1)(C1CCCCC1)C1CCCCC1
- T/C [5]: 100 % of control
- T/C [6]: 100 % of control
- T/C [7]: 90 % of control
- T/C (dose: 100.0 mg/kg/injection, schedule: Q04DX003 (ip), vehicle: other): 109 % of control
- T/C (dose: 200.0 mg/kg/injection, schedule: Q04DX003 (ip), vehicle: other): 122 % of control
- T/C (dose: 400.0 mg/kg/injection, schedule: Q04DX003 (ip), vehicle: other): 122 % of control

Structure (SMILES): Cc1cccc(NNC(=S)Nc2ccccc2)c1
- T/C [8]: 104 % of control
- T/C [9]: 95 % of control
- T/C [10]: 104 % of control

Structure (SMILES): [Cl][Hg][Cl].c1cnccn1
- T/C (dose: 0.25 mg/kg/injection, schedule: Q01DX009 (ip), vehicle: saline with Tween-80): 104 % of control
- T/C (dose: 0.5 mg/kg/injection, schedule: Q01DX009 (ip), vehicle: saline with Tween-80): 96 % of control and 109 % of control
- T/C (dose: 2.0 mg/kg/injection, schedule: Q04DX003 (ip), vehicle: saline with Tween-80): 95 % of control and 100 % of control
- T/C (dose: 4.0 mg/kg/injection, schedule: Q01DX009 (ip), vehicle: saline with Tween-80): 96 % of control
- T/C (dose: 4.0 mg/kg/injection, schedule: Q04DX003 (ip), vehicle: saline with Tween-80): 95 % of control and 96 % of control
- T/C (dose: 5.0 mg/kg/injection, schedule: Q04DX003 (ip), vehicle: saline with Tween-80): 116 % of control
- T/C (dose: 8.0 mg/kg/injection, schedule: Q04DX003 (ip), vehicle: saline with Tween-80): 111 % of control and 119 % of control

Structure (SMILES): NC12CC3CC(CC(C3)C1)C2
- T/C (dose: 25.0 mg/kg/injection, schedule: Q01DX010 (ip), vehicle: saline): 100 % of control
- T/C (dose: 50.0 mg/kg/injection, schedule: Q01DX010 (ip), vehicle: saline): 100 % of control
- T/C (dose: 100.0 mg/kg/injection, schedule: Q01DX010 (ip), vehicle: saline): 100 % of control

Structure (SMILES): CCCCCCCS(=O)CCCCCCC
- T/C (dose: 6.25 mg/kg/injection, schedule: Q01DX009 (ip), vehicle: saline with Tween-80): 102 % of control
- T/C [5]: 104 % of control
- T/C [6]: 95 % of control
- T/C [7]: 104 % of control

Structure (SMILES): O=[N+]([O-])c1ccc(N=Nc2c(O)ccc3ccccc23)cc1
- T/C [6]: 109 % of control
- T/C [7]: 100 % of control
- T/C [11]: 111 % of control
- T/C [8]: 96 % of control
- T/C [12]: 120 % of control
- T/C [9]: 105 % of control
- T/C [13]: 110 % of control
- T/C [10]: 106 % of control
- T/C (dose: 400.0 mg/kg/injection, schedule: Q04DX003 (ip), vehicle: saline with Tween-80): 105 % of control

Structure (SMILES): C=CCCc1cc(OC)ccc1C(=O)C(C)C
- T/C [7]: 112 % of control
- T/C [9]: 119 % of control

Structure (SMILES): CC(Sc1ncnc2nc[nH]c12)c1ccccc1 (stereo unspecified)
- T/C (dose: 50.0 mg/kg/injection, schedule: Q04DX003 (ip), vehicle: Klucel (hydroxypropylcellulose) (HPC)): 100 % of control
- T/C [14]: 100 % of control
- T/C [15]: 110 % of control

Structure (SMILES): CC(Oc1ccccc1-c1ccccc1)C(=O)N(C)C (stereo unspecified)
- T/C [5]: 100 % of control
- T/C [7]: 121 % of control and 124 % of control
- T/C [8]: 97 % of control and 105 % of control
- T/C [9]: 112 % of control

Structure (SMILES): C[C@]12CC[C@H]3[C@@H](CC[C@@H]4C[C@@H](O)CC[C@@]43C=O)[C@]13O[C@@H]3CC2c1ccc(=O)oc1 (stereo partly specified)
- T/C (dose: 0.25 mg/kg/injection, schedule: Q01DX009 (ip), vehicle: Klucel (hydroxypropylcellulose) (HPC)): 100 % of control
- T/C (dose: 0.5 mg/kg/injection, schedule: Q01DX009 (ip), vehicle: Klucel (hydroxypropylcellulose) (HPC)): 98 % of control
- T/C (dose: 1.0 mg/kg/injection, schedule: Q01DX009 (ip), vehicle: Klucel (hydroxypropylcellulose) (HPC)): 98 % of control
- T/C (dose: 2.0 mg/kg/injection, schedule: Q01DX009 (ip), vehicle: Klucel (hydroxypropylcellulose) (HPC)): 100 % of control

Structure (SMILES): O=C(O)CCI
- T/C (dose: 25.0 mg/kg/injection, schedule: Q04DX003 (ip), vehicle: saline with Tween-80): 113 % of control
- T/C [16]: 100 % of control
- T/C [11]: 100 % of control
- T/C (dose: 100.0 mg/kg/injection, schedule: Q01DX001 (ip), vehicle: saline): 104 % of control
- T/C [17]: 100 % of control
- T/C [12]: 92 % of control and 95 % of control
- T/C (dose: 200.0 mg/kg/injection, schedule: Q01DX001 (ip), vehicle: saline): 104 % of control
- T/C [18]: 91 % of control

Structure (SMILES): O=C1C[C@H]2[C@H](CO)[C@@H](OC(=O)c3ccc(-c4ccccc4)cc3)C[C@H]2O1
- T/C (dose: 12.5 mg/kg/injection, schedule: Q01DX009 (ip), vehicle: Klucel (hydroxypropylcellulose) (HPC)): 105 % of control
- T/C (dose: 25.0 mg/kg/injection, schedule: Q01DX009 (ip), vehicle: Klucel (hydroxypropylcellulose) (HPC)): 115 % of control
- T/C [3]: 105 % of control
- T/C (dose: 75.0 mg/kg/injection, schedule: Q01DX009 (ip), vehicle: saline with Tween-80): 120 % of control

Structure (SMILES): Oc1ccc(N=Cc2ccccc2O)cc1
- T/C [17]: 108 % of control
- T/C (dose: 100.0 mg/kg/injection, schedule: Q04DX003 (ip), vehicle: saline): 105 % of control
- T/C (dose: 200.0 mg/kg/injection, schedule: Q04DX003 (ip), vehicle: saline): 100 % of control
- T/C (dose: 400.0 mg/kg/injection, schedule: Q04DX003 (ip), vehicle: saline): 110 % of control

Structure (SMILES): Cc1ccc(S(=O)(=O)c2ccc(Sc3cccc[n+]3[O-])c3nonc23)cc1
- T/C [6]: 119 % of control
- T/C [8]: 111 % of control

Structure (SMILES): CC(C)CSc1nc(N)nc2nc[nH]c12
- T/C [12]: 109 % of control
- T/C [13]: 109 % of control

Structure (SMILES): CCOc1ccc(Nc2ncnc3nc[nH]c23)cc1CN(CCCl)CCCl
- T/C (dose: 0.13 mg/kg/injection, schedule: Q04DX003 (ip), vehicle: saline): 106 % of control
- T/C (dose: 0.2 mg/kg/injection, schedule: Q04DX003 (ip), vehicle: saline): 117 % of control
- T/C [1]: 118 % of control
- T/C (dose: 0.29 mg/kg/injection, schedule: Q04DX003 (ip), vehicle: saline): 196 % of control
- T/C (dose: 0.3 mg/kg/injection, schedule: Q04DX003 (ip), vehicle: saline): 121 % of control
- T/C (dose: 0.88 mg/kg/injection, schedule: Q04DX003 (ip), vehicle: saline): 165 % of control
- T/C [2]: 154 % of control
- T/C (dose: 1.0 mg/kg/injection, schedule: Q04DX003 (ip), vehicle: saline): 205 % of control
- T/C (dose: 2.0 mg/kg/injection, schedule: Q01DX009 (ip), vehicle: saline): 172 % of control
- T/C (dose: 2.2 mg/kg/injection, schedule: Q01DX009 (ip), vehicle: saline): 163 % of control
- T/C (dose: 3.0 mg/kg/injection, schedule: Q04DX003 (ip), vehicle: saline): 155 % of control
- T/C (dose: 3.3 mg/kg/injection, schedule: Q01DX009 (ip), vehicle: saline): 154 % of control

Structure (SMILES): CC1(C)CCCC2(C)C3CCC(C31)C2OC(=O)c1ccc([N+](=O)[O-])cc1 (stereo unspecified)
- T/C (dose: 50.0 mg/kg/injection, schedule: Q01DX001 (ip), vehicle: saline with Tween-80): 100 % of control
- T/C (dose: 100.0 mg/kg/injection, schedule: Q01DX001 (ip), vehicle: saline with Tween-80): 100 % of control
- T/C (dose: 200.0 mg/kg/injection, schedule: Q01DX001 (ip), vehicle: saline with Tween-80): 105 % of control

Structure (SMILES): C=CC1CN2CCC1CC2C(O)c1ccnc2ccc(OC)cc12 (stereo unspecified)
- T/C [16]: 120 % of control
- T/C [17]: 95 % of control
- T/C [18]: 100 % of control

Structure (SMILES): NNc1cccc(Cl)n1
- T/C [7]: 103 % of control

Structure (SMILES): O=C(NCCO)c1cc2ccccc2cc1O
- T/C [4]: 90 % of control
- T/C [14]: 104 % of control
- T/C (dose: 200.0 mg/kg/injection, schedule: Q01DX009 (ip), vehicle: Klucel (hydroxypropylcellulose) (HPC)): 100 % of control
- T/C [15]: 100 % of control
- T/C (dose: 400.0 mg/kg/injection, schedule: Q01DX009 (ip), vehicle: Klucel (hydroxypropylcellulose) (HPC)): 100 % of control
- T/C (dose: 400.0 mg/kg/injection, schedule: Q04DX003 (ip), vehicle: Klucel (hydroxypropylcellulose) (HPC)): 100 % of control
